According to patent publication US7838565B2, “Use of cyclohexenone derivatives in the manufacture of a medicament for treating diabetic complications” (Meiji Dairies Corporation, priority 2001, dated 2010):
Where “and” joins values, the source holds several entries; their conditions need not be identical. Equal entries are not always repeated.

Assays:
Assay type in all cases: in vivo
[1] = tested on: model rat of diabetes (streptozotocin); test: Test 1: neural stimulus conduction rate (sciatic nerve) in STZ diabetes model rat; conditions: STZ (65 mg/kg i.p.) diabetes rat, 8 mg/kg daily i.p. for 8 weeks, mean ± S.E.
Method: (§1) To a rat, 65 mg/kg of streptozotocin (STZ) was administered intraperitoneally to prepare a model rat of diabetes. After intraperitoneal administration of Compound 4 obtained in Preparation Example 4 at a daily dose of 8 mg/kg for 8 weeks from two days after administration of STZ, the conduction rate of stimulus to sciatic nerve was measured by inserting a needle electrode for potential measurement into the vicinity of the right sciatic nerve, right Achilles tendon, and right plantar. Measurement was conducted three times and the mean of them was designated as the nerve stimulus conduction rate of the rat. Each group consisted of 10 to 12 rats.

[2] = tested on: model rat of diabetes (streptozotocin); test: Test 2: maximum quantity excreted by single urination, metabolic cage, STZ diabetes model rat; conditions: 8 mg/kg daily i.p. for 8 weeks, recorded for 24 hours in metabolic cage, mean ± S.E.
Method: as §1
In a similar manner to Test 1, Compound 4 obtained in Preparation Example 4 was administered intraperitoneally to a rat at a daily dose of 8 mg/kg day for 8 weeks from two days after administration of STZ. Its urination pattern such as urination frequency and urination amount was then recorded for 24 hours at 2.5-min intervals by using a metabolic cage.

[3] = tested on: model rat of diabetes (streptozotocin); test: Test 3: bladder capacity and urination efficiency by intravesical pressure measurement under anesthesia, STZ diabetes model rat; conditions: 8 mg/kg daily i.p. for 8 weeks, mean ± S.E.
Method: as §1
In a similar manner to Test 1, Compound 4 obtained in Preparation Example 4 was administered intraperitoneally to a rat at a daily dose of 8 mg/kg for 8 weeks from two days after administration of STZ. The intravesical pressure of the rat was then measured under anesthesia, whereby bladder capacity and urination efficiency were determined.
The urination efficiency was determined from an excreted quantity/bladder capacity ratio.
Urination efficiency (%)=100×excreted quantity/bladder capacity

## CC1=C(CCCCCCCCCCCCCCCO)C(C)(C)CCC1=O [Compound 4, 3-(15-Hydroxypentadecyl)-2,4,4-trimethyl-2-cyclohexen1-one]
[1]
  Conduction rate of stimulus to nerve: 45.5 m/sec and 45.5 ± 1.2 m/sec
[2]
  Maximum amount excreted by single urination: 3.71 ± 0.26 mL
[3]
  Bladder capacity (urination-inducing): 0.54 ± 0.07 mL
  Urination efficiency (100×excreted quantity/bladder capacity): 75.0±6.1%
